Experimental data published in US20240352000A1, “NOVEL PYRIMIDINE-2,4-DIAMINE DERIVATIVES, PREPARATION METHOD THEREFOR, AND PHARMACEUTICAL COMPOSITION CONTAINING SAME AS ACTIVE INGREDIENT FOR PREVENTION OR TREATMENT OF CANCER” (KOREA RESEARCH INSTITUTE OF CHEMICAL TECHNOLOGY, priority 2021, published 2024).

How the values were obtained:
[1] = test system: Ba/F3 EGFR L858R/T790M; test: CellTiter-Glo cell viability, Ba/F3 EGFR L858R/T790M; type: cell-based; details: 72 hours
Description: (§1) An experiment to measure the activity of the compounds of the present invention against the mutant Ba/F3 EGFR cell line was performed as follows using the CellTiter-Glo system sold by Promega. The CellTiter-Glo assay is a method to confirm the cell viability by measuring ATP present in cells in cell culture. The Ba/F3 EGFR L858R, Ba/F3 EGFR L858R/T790M, Ba/F3 EGFR L858R/T790M/C797S mutant cell line was used. The Ba/F3 EGFR L858R, Ba/F3 EGFR L858R/T790M, and Ba/F3 EGFR L858R/T790M/C797S mutant cell lines was cultured in RPMI containing 10% FBS and 1% penicillin-streptomycin with 1 μg of puromycin in an incubator at 37° C. and 5% CO2.
(§2) Analysis of the inhibitory ability effect of the compounds against EGFR was conducted according to the following analysis reaction recipe.
(§3) 2500 cells/90 μl were passaged and cultured in a 96-well cell culture plate, and after 24 hours, treated with the compound represented by Formula 1 at a concentration of 0, 0.01, 0.03, 0.1, 0.3, 1, 3, and 10 (μM). After reaction for 72 hours, the plate treated with the compound was left at room temperature for 30 minutes, then further treated with 100 μl of reagent, and shaken at room temperature for 10 minutes. Finally, the ratio of fluorescence values at 570 nm was obtained using the equipment to quantitatively measure and confirmed the inhibitory ability of the compounds. The measurement values measured at eight compound concentrations were analyzed using the Prism program (version 5.01, Graphpad Software, Inc.), and the IC50 value, which is an indicator of the inhibitory ability of the compound, was calculated.

[2] = test system: Ba/F3 EGFR del19/T790M/C797S; test: CellTiter-Glo cell viability, Ba/F3 EGFR del19/T790M/C797S; type: cell-based; details: 72 hours
Description: (§4) An experiment to measure the activity of the compounds of the present invention against the mutant Ba/F3 EGFR cell line was performed as follows using the CellTiter-Glo system sold by Promega. The CellTiter-Glo assay is a method to confirm the cell viability by measuring ATP present in cells in cell culture. For the Ba/F3 EGFR del19, Ba/F3 EGFR del19/T790M, Ba/F3 del19/T790M/C797S mutant cell line, a cell line provided by Crown Bioscience was purchased and used. The Ba/F3 EGFR del19, Ba/F3 EGFR del19/T790M, Ba/F3 del19/T790M/C797S mutant cell line was cultured in RPMI containing 10% FBS and 1% penicillin-streptomycin with 1 μg of puromycin in an incubator at 37° C. and 5% CO2.
as §2
as §3, with “cells/90 μL” for “cells/90 μl”

[3] = test system: Ba/F3 EGFR del19; test: CellTiter-Glo cell viability, Ba/F3 EGFR del19; type: cell-based; details: 72 hours
Description: as §4, §2
as §3, with “cells/90 μL” for “cells/90 μl”

[4] = target: EGFR del19/T790M/C797S (Homo sapiens (Human), UniProt P00533, C797S/DEL746-750/T790M); test: HTRF enzyme assay, EGFR del19/T790M/C797S mutant enzyme; type: biochemical; details: enzyme from SignalChem, 37° C. 2 hours
Chain of EGFR del19/T790M/C797S (P00533 other isoform, or with tags, fused parts or gaps T790M/C797S/del 1-694/del 746-750 limits assumed): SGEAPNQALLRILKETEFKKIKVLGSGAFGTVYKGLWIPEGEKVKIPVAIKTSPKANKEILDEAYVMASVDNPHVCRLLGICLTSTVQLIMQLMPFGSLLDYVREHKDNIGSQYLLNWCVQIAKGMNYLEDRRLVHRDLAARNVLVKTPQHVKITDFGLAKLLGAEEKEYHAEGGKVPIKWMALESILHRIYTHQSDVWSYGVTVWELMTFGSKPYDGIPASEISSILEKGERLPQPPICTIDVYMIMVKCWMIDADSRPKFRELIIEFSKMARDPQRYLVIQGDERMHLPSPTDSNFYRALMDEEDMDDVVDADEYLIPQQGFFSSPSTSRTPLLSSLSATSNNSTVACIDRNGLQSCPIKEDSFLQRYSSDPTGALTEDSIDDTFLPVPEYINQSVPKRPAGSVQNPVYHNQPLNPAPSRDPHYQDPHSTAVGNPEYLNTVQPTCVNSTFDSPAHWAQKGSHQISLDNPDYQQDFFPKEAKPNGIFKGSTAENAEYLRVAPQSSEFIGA
Description: (§5) An experiment to measure the activity of the compounds of the present invention against EGFR mutant enzymes was performed as follows using the HTRF system sold by Cisbio. For the EGFR del19/T790M mutant enzyme, a recombinant protein provided by Carna Biosciences was purchased and used, and for the EGFR del19/T790M/C797S mutant enzyme, a protein provided by SignalChem was purchased and used as an enzyme source.
(§6) The composition of the assay buffer used for measuring the activity was 50 mM Tris-HCl pH 7.5, 100 mM NaCl, 7.5 mM MgCl2, 3 mM KCl, 0.01% Tween 20, 0.1% BSA, and 1 mM DTT. Here, an enzyme reaction was performed using ATP at a concentration of […] and a peptide substrate labeled with biotin at a concentration of […]. Analysis of the inhibitory effect of the compounds against the EGFR activity was conducted according to the following analysis reaction recipe. • Component 1: 4 μL of an EGFR mutant enzyme • Component 2: 2 μL of a compound solution • Component 3: 4 μL of ATP and a peptide labeled with biotin
(§7) The enzyme reaction was started by first mixing Component 1 and Component 2 and then adding Component 3. After reaction at 37° C. for 2 hours, […] of measurement solution consisting of streptavidin-XL665 and europium-labeled anti-phosphotyrosine antibody provided by Cisbio was added to the enzyme reaction solution and reacted at room temperature for 1 hour. Finally, the ratio of fluorescence values at 615 nm and 665 nm was obtained using the Envision equipment from Perkin-Elmer to quantitatively measure the enzyme activity and confirmed the inhibitory ability of the compounds. The measurement values measured at seven compound concentrations were analyzed using the Prism program (version 5.01, Graphpad Software, Inc.), and the IC50 value, which is an indicator of the inhibitory ability of the compound, was calculated.

[5] = target: EGFR del19/T790M (Homo sapiens (Human), UniProt P00533, DEL746-750/T790M); test: HTRF enzyme assay, EGFR del19/T790M mutant enzyme; type: biochemical; details: recombinant enzyme, 37° C. 2 hours
Chain of EGFR del19/T790M (P00533 other isoform, or with tags, fused parts or gaps T790M/del 1-668/del 746-750 limits assumed): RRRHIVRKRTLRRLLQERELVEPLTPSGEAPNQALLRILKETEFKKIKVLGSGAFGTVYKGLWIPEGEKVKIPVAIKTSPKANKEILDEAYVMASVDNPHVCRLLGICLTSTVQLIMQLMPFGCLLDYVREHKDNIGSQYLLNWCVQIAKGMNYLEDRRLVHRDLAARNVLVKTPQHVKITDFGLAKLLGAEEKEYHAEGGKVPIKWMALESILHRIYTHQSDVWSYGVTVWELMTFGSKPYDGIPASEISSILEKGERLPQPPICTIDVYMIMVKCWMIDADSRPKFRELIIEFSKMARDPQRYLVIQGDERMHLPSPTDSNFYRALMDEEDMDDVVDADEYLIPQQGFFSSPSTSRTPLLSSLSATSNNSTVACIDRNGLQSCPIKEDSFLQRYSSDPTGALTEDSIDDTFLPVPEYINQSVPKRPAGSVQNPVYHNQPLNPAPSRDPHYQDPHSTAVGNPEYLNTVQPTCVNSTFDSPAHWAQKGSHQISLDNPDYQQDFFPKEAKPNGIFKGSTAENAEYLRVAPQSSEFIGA
Description: as §5, §6, §7

[6] = test system: Ba/F3 EGFR del19/T790M; test: CellTiter-Glo cell viability, Ba/F3 EGFR del19/T790M; type: cell-based; details: 72 hours
Description: as §4, §2
as §3, with “cells/90 μL” for “cells/90 μl”

[7] = test system: Ba/F3 EGFR L858R/T790M/C797S; test: CellTiter-Glo cell viability, Ba/F3 EGFR L858R/T790M/C797S; type: cell-based; details: 72 hours
Description: as §1, §2, §3

[8] = test system: Ba/F3 EGFR L858R; test: CellTiter-Glo cell viability, Ba/F3 EGFR L858R; type: cell-based; details: 72 hours
Description: as §1, §2, §3

`COc1cc(N2CCC(N(C)C)CC2)ccc1Nc1ncc(Cl)c(Nc2cccc3c2N(S(C)(=O)=O)CC3)n1` [Example 1, 5-chloro-N2-(4-(4-(dimethylamino)piperidin-1-yl)-2-methoxyphenyl)-N4-(1-(methylsulfonyl)indolin-7-yl)pyrimidine-2,4-diamine] gave an IC50 [1] of under 30 nM, an IC50 [2] of under 100 nM and an IC50 [3] of under 30 nM. The IC50 [4] was under 1 nM, the IC50 [5] was under 1 nM and the IC50 [6] was under 30 nM. It also gave an IC50 [7] of under 100 nM and an IC50 [8] of under 30 nM.
Compound `COc1cc(N(C)CCN(C)C)ccc1Nc1ncc(Cl)c(Nc2cccc3c2N(S(C)(=O)=O)CC3)n1` [Example 3, 5-chloro-N2-(4-((2-(dimethylamino)ethyl)(methyl)amino)-2-methoxyphenyl)-N4-(1-(methylsulfonyl)indolin-7-yl)pyrimidine-2,4-diamine] has an IC50 [1] of over 100 nM, an IC50 [2] of over 100 nM and an IC50 [3] of under 100 nM. It also gave an IC50 [6] of under 100 nM and an IC50 [8] of over 100 nM.
In the case of `COc1cc(N2CCC(N(C)C)CC2)ccc1Nc1ncc(Cl)c(Nc2cccc3c2N(S(C)(=O)=O)CCC3)n1` [Example 4, 5-chloro-N2-(4-(4-(dimethylamino)piperidin-1-yl)-2-methoxyphenyl)-N4-(1-(methylsulfonyl)-1,2,3,4-tetrahydroquinolin-8-yl)pyrimidine-2,4-diamine], the IC50 [1] is reported as under 100 nM, the IC50 [2] is reported as under 30 nM and the IC50 [3] is reported as under 30 nM. The IC50 [4] was under 1 nM, the IC50 [5] was under 1 nM and the IC50 [6] was under 30 nM. It also gave an IC50 [8] of under 100 nM.
`COc1cc(N(C)CCN(C)C)ccc1Nc1ncc(Cl)c(Nc2cccc3c2N(S(C)(=O)=O)CCC3)n1` [Example 6, 5-chloro-N2-(4-((2-(dimethylamino)ethyl)(methyl)amino)-2-methoxyphenyl)-N4-(1-(methylsulfonyl)-1,2,3,4-tetrahydroquinolin-8-yl)pyrimidine-2,4-diamine] showed an IC50 [1] of under 100 nM, an IC50 [2] of over 100 nM and an IC50 [3] of under 100 nM. The IC50 [4] was under 1 nM, the IC50 [5] was 1 nM and the IC50 [6] was under 100 nM. It also gave an IC50 [8] of over 100 nM.
Compound `COc1cc(N2CCC(N3CCN(C)CC3)CC2)ccc1Nc1ncc(C)c(Nc2cccc3c2N(S(C)(=O)=O)CC3)n1` [Example 7, N2-(2-methoxy-4-(4-(4-methylpiperazin-1-yl)piperidin-1-yl)phenyl)-5-methyl-N4-(1-(methylsulfonyl)indolin-7-yl)pyrimidine-2,4-diamine] has an IC50 [1] of under 100 nM, an IC50 [2] of over 100 nM and an IC50 [3] of under 30 nM. The IC50 [4] was under 1 nM, the IC50 [5] was under 1 nM and the IC50 [6] was under 100 nM. The IC50 [7] was over 100 nM and the IC50 [8] was under 30 nM.
In the case of `COc1cc(N2CCC(N3CCN(C)CC3)CC2)ccc1Nc1ncc(F)c(Nc2cccc3c2N(S(C)(=O)=O)CC3)n1` [Example 8, 5-fluoro-N2-(2-methoxy-4-(4-(4-methylpiperazin-1-yl)piperidin-1-yl)phenyl)-N4-(1-(methylsulfonyl)indolin-7-yl)pyrimidine-2,4-diamine], the IC50 [1] is reported as under 100 nM, the IC50 [2] is reported as over 100 nM and the IC50 [3] is reported as under 100 nM. It also gave an IC50 [4] of under 1 nM, an IC50 [5] of under 1 nM and an IC50 [6] of over 100 nM. The IC50 [7] was over 100 nM and the IC50 [8] was under 30 nM.
Work on `COc1cc(N2CCC(N3CCN(C)CC3)CC2)ccc1Nc1ncc(C(F)(F)F)c(Nc2cccc3c2N(S(C)(=O)=O)CC3)n1` [Example 9, N2-(2-methoxy-4-(4-(4-methylpiperazin-1-yl)piperidin-1-yl)phenyl)-N4-(1-(methylsulfonyl)indolin-7-yl)-5-(trifluoromethyl)pyrimidine-2,4-diamine] yielded an IC50 [1] of under 30 nM, an IC50 [2] of over 100 nM and an IC50 [3] of under 30 nM. It also gave an IC50 [4] of under 1 nM, an IC50 [5] of under 1 nM and an IC50 [6] of under 30 nM. The IC50 [7] was over 100 nM and the IC50 [8] was under 100 nM.
Compound `COc1cc(N2CCC(N3CCN(C)CC3)CC2)ccc1Nc1ncc(C(=O)OC(C)C)c(Nc2cccc3c2N(S(C)(=O)=O)CC3)n1` [Example 10, isopropyl 2-((2-methoxy-4-(4-(4-methylpiperazin-1-yl)piperidin-1-yl)phenyl)amino)-4-((1-(methylsulfonyl)indolin-7-yl)amino)pyrimidine-5-carboxylate] has an IC50 [1] of over 100 nM, an IC50 [2] of over 100 nM and an IC50 [3] of over 100 nM. The IC50 [4] was 50 nM, the IC50 [5] was 60 nM and the IC50 [6] was over 100 nM. It also gave an IC50 [7] of over 100 nM and an IC50 [8] of under 100 nM.
Work on `COC(=O)c1cnc(Nc2ccc(N3CCC(N4CCN(C)CC4)CC3)cc2OC)nc1Nc1cccc2c1N(S(C)(=O)=O)CC2` [Example 11, methyl 2-((2-methoxy-4-(4-(4-methylpiperazin-1-yl)piperidin-1-yl)phenyl)amino)-4-((1-(methylsulfonyl)indolin-7-yl)amino)pyrimidine-5-carboxylate] yielded an IC50 [1] of under 100 nM, an IC50 [2] of over 100 nM and an IC50 [3] of under 100 nM. It also gave an IC50 [4] of 5 nM, an IC50 [5] of 2 nM and an IC50 [6] of over 100 nM. It also gave an IC50 [7] of over 100 nM and an IC50 [8] of under 100 nM.
